# According to US20260199365A1, “BIS-SULFONAMIDE SHIP1 ACTIVATORS” (The Research Foundation for the State University of New York, priority 2022, published 2026):
# Tests used:
# [1] = Solubility of the isolated solid in common solvents; assay type: physicochemical; conditions: DMSO, acetone, methanol, chloroform, and water
# Description: While most of the analogs in Table 1 were easy to handle, attempts to isolate the thiomorpholine sulfone 23 were problematic. During the final sulfonamide formation to access 23 an insoluble solid was formed and filtered from the reaction mixture. […] A combustion analysis did match the formula for the desired product, however given the insolubility of this substance it was not evaluated further.
# [2] = system: IL-6 production in BV-2 cells; experiment: ELISA quantitation of IL-6 production in BV-2 cells after stimulation with LPS; assay type: cell-based, murine; conditions: 1 h pretreatment with SHIP1 activator 10 μM, then LPS
# Experimental: FIG. 3 presents an ELISA quantitation of IL-6 production in BV-2 cells after stimulation with LPS. BV-2 cells were plated and treated for 1 h with vehicle (Veh, 0.25% DMSO) or SHIP1 activator (10 μM in Veh) prior to addition of LPS (100 ng/ml). Unstimulated BV2 cells treated with Veh are shown as an additional control to assess LPS induction of IL-6. (A) Evaluation of 1, 26, 29 and 53. (B) In a separate experiment, 70, and 71 were evaluated under similar conditions. Bars indicate Mean G SEM; statistical tests: two-way ANOVA with Tukey correction, **** p<0.0001, ** p<0.01.
# Given this experience, some of the new activators were evaluated in a cell-based setting. Using the immortalized BV-2 cell line, which is derived from murine microglia and retains many microglial morphological and functional characteristics of microglia, an assay for the anti-inflammatory effects of these activators was developed. This assay involved treatment of the cells with lipopolysaccharides (LPS) to induce IL-6 production which can then be quantified with an ELISA.
# Cell culture: The BV2 cell line was obtained from the ATCC (American Type Culture Collection). The ATCC and performs genetic validation on deposited cell lines. For the inflammatory cytokines production studies, BV2 cells were cultured in DMEM/F12 (Corning) 10% HI FBS at 37° C. and 5% CO2 in a humidified incubator and split 1:6 every 3 days with Cellstripper™ (Corning). Cells were kept at 37° C. and 5% CO2 in a humidified incubator.
# ELISA measurements: Parental (scrambled guide control) BV2 cells were seeded at 5×10^5/mL, […] in 48 well plate. Cell were treated with […] small molecule or vehicle control (0.5% DMSO) and incubated for 1 h before addition of stimuli. LPS (10 ng/ml, E. coli O111: B4, Sigma) was added to the cells and incubated for 6 h to detect IL-6 production. Supernatants were spun down at 400×g for 5 minutes to remove cell debris and froze at −20° C. for ELISAs. IL-6 levels were quantified from cellular supernatants with ELISA MAX™ Standard Set Mouse IL-6 kit (Biolegend), following manufacturer's recommendations. We detected absorbance at 450 nm and removed 570 nm background absorbance, with a plate reader (Synergy 2, BioTek). All experiments were repeated three times and each value was reported as mean±SEM from biological replicates in the same assay. All statistical analysis were performed using GraphPad Prism (version 9.2). Two-way ANOVA was used to analyze all data with two independent variables as time and treatment or concentration and treatment, data is reported as Mean+/−SEM.
# [3] = molecular target: T1, recombinant human truncated SHIP1 (tSHIP1) (Homo sapiens, UniProt Q92835); experiment: Malachite Green Phosphatase Release Assay (SHIP1 phosphatase activity); assay type: biochemical; conditions: for Phosphatase activity in the Malachite Green Assay, analog concentration 125 μM: 125 μM analog; for Phosphatase activity in the Malachite Green Assay, analog concentration 125 μM / Phosphatase activity in the Malachite Green Assay, analog concentration 250 μM / Phosphatase activity in the Malachite Green Assay, analog concentration 500 μM: 100 μM PI(3,4,5)P3-diC8 substrate, normalized to vehicle control (DMSO) = 100%; for Phosphatase activity in the Malachite Green Assay, analog concentration 250 μM: 250 μM analog; for Phosphatase activity in the Malachite Green Assay, analog concentration 500 μM: 500 μM analog, >100% activation, <100% inhibition; for SHIP1 activator activity in the malachite green assay: discussion of Table 4 (125-500 μM)
# T1 construct: tSHIP1 (SHIP1, residues 397-864) was amplified from pET24TEV-tSHIP1; His tag; made in house; host or cells: E. coli BL21
# T1 sequence (Q92835 397-864): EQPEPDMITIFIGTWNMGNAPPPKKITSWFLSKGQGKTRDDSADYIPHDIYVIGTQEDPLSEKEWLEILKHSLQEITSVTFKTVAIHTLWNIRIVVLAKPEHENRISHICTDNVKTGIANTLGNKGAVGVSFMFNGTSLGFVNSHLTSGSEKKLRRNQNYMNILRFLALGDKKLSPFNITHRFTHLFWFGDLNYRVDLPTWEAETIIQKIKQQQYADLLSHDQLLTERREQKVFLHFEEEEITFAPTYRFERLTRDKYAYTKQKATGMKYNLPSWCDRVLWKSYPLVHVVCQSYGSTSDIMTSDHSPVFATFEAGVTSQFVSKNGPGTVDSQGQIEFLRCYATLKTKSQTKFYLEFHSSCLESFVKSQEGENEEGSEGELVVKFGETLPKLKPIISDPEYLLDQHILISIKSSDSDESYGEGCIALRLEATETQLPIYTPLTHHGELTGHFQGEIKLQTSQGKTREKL
# Experimental: ^aPhosphatase activity for SHIP1 and SHIP2 enzyme as determined in the malachite green assay. Results were normalized to the phosphatase activity level from vehicle control (DMSO) used as 100% activity. Values >100% are attributed to activation, while values <100% show inhibition of the enzyme compared to the control. The assay was performed at the indicated concentration of the small molecule with 100 μM PI(3,4,5)P3-diC8 as the substrate. ^bnd=not determined, compound 23 was insoluble.
# Cloning and expression of tSHIP1 of truncated human SHIP1 protein (tSHIP1) from human whole blood mRNA have been previously described (see Brooks R, Iyer, S., Akada, H., Neelam, S., Russo, C. M., Chisholm, J. D., and Kerr W. G. Coordinate Expansion of Murine Hematopoietic and Mesenchymal Stem Cell Compartments by SHIPi Stem Cells 2015; 33:848). Briefly, tSHIP1 (SHIP1, residues 397-864) was amplified from pET24TEV-tSHIP1. Plasmids were extracted with Midi Prep (Qiagen) and sequences were verified by sequencing of the entire expression regions. The plasmids were then transformed into E. coli BL21 (New England Biolabs). Fresh colonies were amplified in 1 L LB at 37° C., shaking at 250 rpm until OD600 nm reached 0.6. Protein expression was induced with […] IPTG and incubation was continued at 16° C., shaking at 250 rpm for 16 h. Following centrifugation, bacteria pellets were stored overnight at −20° C. Protein was extracted form bacterial cell pellet using BugBuster HT (Millipore), according to manufacturer's recommendations. The His-tagged protein was purified by FPLC using HisTrapHP 5 ml column (Cytiva Life Sciences) at a 5 ml/min flow rate and 10 mM-1M imidazole gradient in Buffer A (20 mM Tris pH 8.0, 300 mM NaCl, 10 mM imidazole, 5 mM β-mercaptoethanol). Fractions containing active protein by Malachite Green Phosphatase Release Assay (Echelon, see below) were pooled, concentrated and buffer exchanged to reduce imidazole concentration by centrifugation using Pierce Protein Concentrators 30KMWCO PES, (ThermoFisher Scientific). Protein was aliquoted and stored at −80° C. in a mixture of Buffer A (without β-ME) and 50% glycerol.
# Malachite Green Phosphatase Release Assays: Malachite Green Phosphatase Release Assays (Echelon Biosciences) were performed with recombinant human truncated SHIP1 (tSHIP1) (Brooks, 2015) and SHIP2 (Echelon Biosciences). Briefly, serial dilutions of the compounds dissolved in DMSO were added to the recombinant enzymes diluted in reaction buffer Rx (50 mM Hepes pH 7.4, 150 mM NaCl, 1 mM MgCl2, 0.25 mM EDTA) in triplicate reactions in 96-well plates. Reactions were incubated for 2 min at room temperature. […] of 1 mM Phosphatidylinositol 3,4,5-trisphosphate diC8 (PI(3,4,5)P3diC8) (Echelon Biosciences) was added to each reaction to a final concentration of 100 μM in a final volume of […]. Following 20 min incubation at 37° C., 100 μL of Malachite Green Solution (Echelon Biosciences) was added to each well and plates were incubated at room temperature in the dark for 15 min. Plates were then read at 620 nm on a plate reader (Synergy 2, BioTek).
Compound,Solubility [1],IL-6 production induced by LPS [2],"Phosphatase activity in the Malachite Green Assay, analog concentration 125 μM [3] [%]","Phosphatase activity in the Malachite Green Assay, analog concentration 250 μM [3] [%]","Phosphatase activity in the Malachite Green Assay, analog concentration 500 μM [3] [%]",SHIP1 activator activity in the malachite green assay [3]
Cc1sc(S(=O)(=O)N2CCS(=O)(=O)CC2)cc1NC(=O)CNS(=O)(=O)c1ccc(F)cc1 [Compound 23],insoluble in any solvent,–,–,–,–,–
"Cc1sc(S(=O)(=O)N2CCCCC2)cc1NC(=O)CNS(=O)(=O)c1ccc(F)cc1 [Compound K368, 2-(4-Fluorobenzenesulfonamido)-N-[2-methyl-5-(piperidine-1-sulfonyl)thiophen-3-yl]acetamide]",–,especially significant reductions of IL-6 production,116,119,128,nearly as active as K306
"CCCCNS(=O)(=O)c1cc(NC(=O)CNS(=O)(=O)c2ccc(F)cc2)c(C)s1 [Compound K382, N-[5-(Butylsulfamoyl)-2-methylthiophen-3-yl]-2-(4-fluorobenzenesulfonamido) acetamide]",–,especially significant reductions of IL-6 production,124,124,122,–
"Cc1sc(S(=O)(=O)N2CCSCC2)cc1NC(=O)CNS(=O)(=O)c1ccccc1C(F)(F)F [Compound K403, N-[2-methyl-5-(thiomorpholine-4-sulfonyl)thiophen-3-yl]-2-(2-trifluoromethylbenzenesulfonamido) acetamide]",–,significant activity,106,108,139,good activator activity
Cc1sc(S(=O)(=O)N2CCSCC2)cc1NC(=O)[C@@H]1CCCN1S(=O)(=O)c1ccc(F)cc1 [Compound K408],–,significant decrease in IL-6 formation,107,127,130,significant activity at 250 μM
